Tests used:
Type in all cases: in vivo
[1] = tested on: Spodoptera eridania; assay: Southern armyworm on tomato - systemic evaluation; details: systemic via root uptake; 6.6 ppm soil concentration; foliage excised 21 days after treatment, larvae examined after about 5 days
Experimental: For southern root-knot nematod and systemic tests for southern armyworm, cotton aphid, tobacco budworm and greenbug, a stock solution or suspension was prepared by adding 15 mg of the test compound to 250 mg of dimethylformamide, 1250 mg of acetone and 3 mg of the emulsifier blend referenced above. Water was then added to provide a test compound concentration of 150 ppm. When necessary, sonication was provided to insure complete dispersion. Southern armyworm on tomato - systemic evaluation: This test was conducted in conjunction with the southern root-knot nematode evaluation (discussed below). The tomato plants, grown in the soil (at an initial compound test screening rate of 6.6 ppm soil concentration or about 150 ppm solution concentration) for nematode evaluation, were then utilized for evaluation of a compound's uptake via roots and subsequent systemic transport to the tomato foliage. At the termination of the nematode test, 21 days after treatment, the tomato foliage was excised, placed into a plastic container, and infested with second instar larvae of southern armyworm. After about 5 days, the larvae were examined for percent mortality.

[2] = tested on: Meloidogyne incognita; assay: Southern root-knot nematode test (gall rating on tomato); details: effective dose to provide a 3 gall rating (light galling)
Experimental: For southern root-knot nematod and systemic tests for southern armyworm, cotton aphid, tobacco budworm and greenbug, a stock solution or suspension was prepared by adding 15 mg of the test compound to 250 mg of dimethylformamide, 1250 mg of acetone and 3 mg of the emulsifier blend referenced above. Water was then added to provide a test compound concentration of 150 ppm. When necessary, sonication was provided to insure complete dispersion.
Southern root-knot nematode: Infected roots of tomato plants, containing egg masses of southern root-knot nematode, were removed from a stock culture and cleaned of soil by shaking and washing with tap water. The nematode eggs were separated from the root tissue and rinsed with water. Samples of the egg suspension were placed on a fine screen over a receiving bowl, in which the water level was adjusted to be in contact with the screen. From the bowl, juveniles were collected on a fine screen. […] At the termination of the test, roots of the tomato seedling were removed from the cone and evaluated for galling on a rating scale relative to the untreated control as follows: • 1- severe galling, equal t untreated control • 3- light galling • 4- very light galling • 5- no galling, ie, complete control

[3] = tested on: Spodoptera eridania; assay: Southern armyworm on sorghum - systemic evaluation (soil drench); details: systemic via root uptake, 20 ppm soil concentration dose (and subsequent dilutions), six days
Experimental: Cotton aphid and southern armyworm (on cotton) and greenbug and southern armyworm (on sorghum) - systemic evaluation: A stock solution or suspension was prepared to deliver 5 ml of a 20 ppm soil concentration dose (and subsequent dilutions) as a drench to 6 cm pots containing cotton and sorghum plants. The cotton plants were previously infested with cotton aphids about two days before treatment and greenbug one day before treatment. After holding the plants about three days, the plants were rated for aphid activity. Again at six days, the plants were rated for aphid activity and the cotton aphids and greenbugs were counted and mortality was assessed. Portions of the cotton and sorghum foliage were excised, placed in separate plastic containers, and infested with second instar larvae of southern armyworms. The potted plants were dipped in sulfotepp to kill the remaining aphids and returned to the greenhouse for regrowth. Thirteen days after treatment the remaining foliage was excised and fed to southern armyworm. Mortality was assessed six days after infestation.

[4] = tested on: Heliothis virescens; assay: Tobacco budworm - contact evaluation (topical application); details: topical or contact tests; application dose of 63 µg/g body weight
Experimental: For tobacco budworm contact tests, a stock solution was prepared by dissolving the compound in acetone and then further diluted to provide the required serial dilution concentrations.
Tobacco budworm - contact evaluation: The following topical application method provides an assessment of contact toxicity of a compound to tobacco budworm larvae The test compound solution at sequential two-fold dilution concentrations from 10 down to 0.16 µg/µl was applied by a microinjector in repli cated 1 µl portions to the dorsum of approximately 20 mg tobacco budworm larvae. This is equivalent to applied doses of 500 down to 8 µg/g body weight. An acetone treated control, without any test compounds, as also applied. A treated control with a commercial technical compound, cypermethrin or thiodicarb, also in acetone was used as a standard. The treated larvae were placed, individually, in separate plastic petri dishes containing an untreated cotton leaf and a moist dental wick. The treated larvae were maintained at about 27°C and 50% relative humidity. The percent mortality was rated 1 and 4 days after treatment.

[5] = tested on: Tetranychus urticae; assay: Twospotted spider mite test (foliar, 100 ppm); details: foliar bait tests
Experimental: For mite, aphid, southern armyworm, Mexican bean beetle, and tobacco budworm tests, a solution or suspension was prepared by adding 10 mg of the test compound to a solution of 160 mg of dimethylformamide, 838 mg of acetone, 2 mg of a 3:1 ratio of Triton X-172 : Triton X-152 (respectively, mainly anionic and nonionic low foam emulsifiers which are each anhydro us blends of alkylaryl polyether alcohols with organic sulfonates), and 98.99 g of water. The result was a concentration of 100 ppm of the test compound.
Twospotted spider mite: Leaves infested with adult and nymphal stages of the two-spotted spider mite, obtained from a stock culture were placed on the primary leaves of two bean plants growing in a 6 cm. peat pot. A sufficient number of mites (150-200) for testing were transferred to the fresh plants within a period of twenty-four hours. The potted plants (one pot per compound) were placed on a revolving turntable and sprayed, sufficient to wet the plants to runoff, with 100 ml of the 100 ppm test compound formulation by use of a DeVilbiss spray gun set at 40 psig. air pressure. As an untreated control, 100 ml of the water-acetone-DMF-emulsifier solution, containing no test compound, were also sprayed on infested plants. A treated control with a commercial technical compound, either dicofol or hexythiazox, formulated in the same manner, was tested as a standard. […]

[6] = tested on: Aphis gossypii; assay: Cotton aphid on cotton - systemic evaluation (soil drench); details: systemic via root uptake, soil drench at soil concentrations of the protocols (10.0 or 20 ppm)
Experimental: (§1) For southern root-knot nematod and systemic tests for southern armyworm, cotton aphid, tobacco budworm and greenbug, a stock solution or suspension was prepared by adding 15 mg of the test compound to 250 mg of dimethylformamide, 1250 mg of acetone and 3 mg of the emulsifier blend referenced above. Water was then added to provide a test compound concentration of 150 ppm. When necessary, sonication was provided to insure complete dispersion. Cotton aphid and tobacco budworm (on cotton) and greenbug and tobacco budworm (on sorghum) - systemic evaluation: A 7.0 ml aliquot of the 150 ppm nematode test solution was applied to deliver the equivalent of 10.0 ppm soil concentration dose as a drench to 6 cm pots containing cotton and sorghum plants. The cotton plants were previously infested with cotton aphids about two days before treatment and greenbug one day before treatment. After holding the plants about three days, the plants were rated for aphid activity. Again at six days, the plants were rated for aphid activity and the cotton aphids and greenbugs were counted and mortality was assessed. Portions of the cotton and sorghum foliage were excised, placed in separate plastic containers, and infested with second instar larvae of tobacco budworm. The potted plants were dipped in sulfotepp to kill the remaining aphids and returned to the greenhouse for regrowth. Thirteen days after treatment, the remaining foliage was excised and fed to tobacco budworms. Mortality was assessed six days after infestation. Cotton aphid and southern armyworm (on cotton) and greenbug and southern armyworm (on sorghum) - systemic evaluation: A stock solution or suspension was prepared to deliver 5 ml of a 20 ppm soil concentration dose (and subsequent dilutions) as a drench to 6 cm pots containing cotton and sorghum plants. The cotton plants were previously infested with cotton aphids about two days before treatment and greenbug one day before treatment. After holding the plants about three days, the plants were rated for aphid activity. Again at six days, the plants were rated for aphid activity and the cotton aphids and greenbugs were counted and mortality was assessed. Portions of the cotton and sorghum foliage were excised, placed in separate plastic containers, and infested with second instar larvae of southern armyworms. The potted plants were dipped in sulfotepp to kill the remaining aphids and returned to the greenhouse for regrowth. Thirteen days after treatment the remaining foliage was excised and fed to southern armyworm. Mortality was assessed six days after infestation.

[7] = tested on: Heliothis virescens; assay: Tobacco budworm on sorghum - systemic evaluation (soil drench); details: systemic via root uptake, 10.0 ppm soil concentration
Experimental: For southern root-knot nematod and systemic tests for southern armyworm, cotton aphid, tobacco budworm and greenbug, a stock solution or suspension was prepared by adding 15 mg of the test compound to 250 mg of dimethylformamide, 1250 mg of acetone and 3 mg of the emulsifier blend referenced above. Water was then added to provide a test compound concentration of 150 ppm. When necessary, sonication was provided to insure complete dispersion. Cotton aphid and tobacco budworm (on cotton) and greenbug and tobacco budworm (on sorghum) - systemic evaluation: A 7.0 ml aliquot of the 150 ppm nematode test solution was applied to deliver the equivalent of 10.0 ppm soil concentration dose as a drench to 6 cm pots containing cotton and sorghum plants. The cotton plants were previously infested with cotton aphids about two days before treatment and greenbug one day before treatment. After holding the plants about three days, the plants were rated for aphid activity. Again at six days, the plants were rated for aphid activity and the cotton aphids and greenbugs were counted and mortality was assessed. Portions of the cotton and sorghum foliage were excised, placed in separate plastic containers, and infested with second instar larvae of tobacco budworm. The potted plants were dipped in sulfotepp to kill the remaining aphids and returned to the greenhouse for regrowth. Thirteen days after treatment, the remaining foliage was excised and fed to tobacco budworms. Mortality was assessed six days after infestation.

[8] = tested on: Schizaphis graminum; assay: Greenbug on sorghum - systemic evaluation (soil drench); details: systemic via root uptake, soil drench at soil concentrations of the protocols (10.0 or 20 ppm)
Experimental: as §1

[9] = tested on: Spodoptera eridania; assay: Southern armyworm on oats - seed treatment evaluation; details: 1.0 wt. % on oat seeds
Experimental: Cotton aphid and southern armyworm (on cotton and oats) - seed treatment evaluation: Technical material was applied to the seed of oats and cotton by placing the compound and the seed in an appropriate sized jar and rolling the jar on a ball mill. Assay of the material applied to the seed was by weight. Seed was then planted. When germinated and emerged, the plants were infested at the appropriate intervals with host insects. Mortality was assessed on those insects.

COc1cc(C=Nc2c([S+]([O-])C(F)(F)F)c(C#N)nn2-c2c(Cl)cc(C(F)(F)F)cc2Cl)ccc1O (stereo not drawn) [compound 10, 1-(2,6-dichloro-4-trifluoromethylphenyl)-3-cyano-4-trifluoromethylsulfinyl-5-[(4-hydroxy-3-methoxyphenyl)methylideneimino]pyrazole]
control of southern armyworm on tomato [1]: 50-100%
ED3 value on SRKN larvae [2]: about 21 kg/ha
control of southern armyworm after six days on sorghum [3]: 30-100%

COc1cc(C=Nc2c(SC(F)(F)F)c(C#N)nn2-c2c(Cl)cc(C(F)(F)F)cc2Cl)cc(O)c1O [compound 40]
control of tobacco budworm (TBW) [4]: 50-100%
control of mites [5]: 30-70%

N#Cc1nn(-c2c(Cl)cc(C(F)(F)F)cc2Cl)c(N=Cc2cccs2)c1SC(F)(F)F [compound 7]
ED3 value on SRKN larvae [2]: about 21 kg/ha

Cc1cc(C=Nc2c(SC(F)(F)F)c(C#N)nn2-c2c(Cl)cc(C(F)(F)F)cc2Cl)ccc1O [compound 19]
control of cotton aphid after six days on cotton [6]: 30-100%
control of tobacco budworm after six days on sorghum [7]: 100%
control of greenbug after six days on sorghum [8]: 30-100%

COc1cc(C=Nc2c(SC(F)(F)F)c(C#N)nn2-c2c(Cl)cc(C(F)(F)F)cc2Cl)ccc1O [CMPD NO. 2, 1-(2,6-dichloro-4-trifluoromethylphenyl)-3-cyano-4-trifluoromethylsulfenyl-5-[(4-hydroxy-3-methoxyphenyl)methylideneimino]pyrazole]
control of southern armyworm after six days on sorghum [3]: 30-100%
control of southern armyworm after six days [9]: 100%

N#Cc1nn(-c2c(Cl)cc(C(F)(F)F)cc2Cl)c(N=Cc2cc[n+]([O-])cc2)c1SC(F)(F)F [compound 18, 1-(2,6-dichloro-4-trifluoromethylphenyl)-3-cyano-4-trifluoromethylsulfenyl-5-[(4-pyridyl-N-oxide)methylideneimino]pyrazole]
control of cotton aphid after six days on cotton [6]: 30-100%
control of tobacco budworm after six days on sorghum [7]: 100%
control of greenbug after six days on sorghum [8]: 30-100%

CCOc1cc(C=Nc2c([S+]([O-])C(F)(F)F)c(C#N)nn2-c2c(Cl)cc(C(F)(F)F)cc2Cl)ccc1O (stereo not drawn) [compound 47]
control of mites [5]: 30-70%
